Experimental data as given in PubChem BioAssay (NCI).
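Briefly, cells in 96-well plates were exposed to five compound concentrations for 48 h, and endpoints were estimated by linear interpolation. TGI: total growth inhibition.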 Where a SMILES comes first, the peptide text is derived from it. [ ]: non-standard residue; d: D form. Ac5c = NC1(C(=O)O)CCCC1

Columns and labels:
Assay in all cases: growth of human tumour cells (NCI), 48 h
[1] = system: SK-MEL-28 melanoma
[2] = system: HOP-92 NSCLC
[3] = system: NCI-H226 lung
[4] = system: MDA-N
[5] = system: HCT-15 colon
[6] = system: 786-0 renal
[7] = system: SF-295 CNS
[8] = system: A498 renal
[9] = system: TK-10 renal
[10] = system: KM12 colon
[11] = system: SNB-19 CNS
[12] = system: OVCAR-4 ovarian
[13] = system: ACHN renal
[14] = system: OVCAR-5 ovarian
[15] = system: MDA-MB-231 breast
[16] = system: OVCAR-8 ovarian
[17] = system: U251 CNS
[18] = system: SR leukemia
[19] = system: SF-268 CNS
[20] = system: MCF7 breast
[21] = system: IGROV1 ovarian
[22] = system: HOP-62 NSCLC
[23] = system: NCI-H23 lung
[24] = system: HS 578T breast
[25] = system: MALME-3M melanoma
[26] = system: HT29 colon
[27] = system: UACC-257 melanoma
[28] = system: UACC-62 melanoma
[29] = system: NCI/ADR-RES ovarian
[30] = system: NCI-H460 lung
[31] = system: CCRF-CEM leukemia
[32] = system: OVCAR-3 ovarian
[33] = system: CAKI-1 renal
[34] = system: SN12C renal
[35] = system: SK-MEL-5 melanoma
[36] = system: SNB-75 CNS
[37] = system: EKVX NSCLC
[38] = system: BT-549 breast
[39] = system: COLO 205 colon
[40] = system: PC-3 prostate
[41] = system: HCC-2998 colon
[42] = system: NCI-H522 lung
[43] = system: RXF 393 renal
[44] = system: MOLT-4 leukemia
[45] = system: K-562 leukemia
[46] = system: UO-31 renal
[47] = system: SK-MEL-2 melanoma
[48] = system: A549 NSCLC
[49] = system: M14 melanoma
[50] = system: SW-620 colon
[51] = system: MDA-MB-435
[52] = system: T-47D breast
[53] = system: SK-OV-3 ovarian
[54] = system: DU-145 prostate
[55] = system: HCT-116 colon
[56] = system: RPMI-8226 leukemia
[57] = system: LOX IMVI melanoma
[58] = system: HL-60(TB) leukemia
[59] = system: SF-539 CNS

SMILES: CCCCC/C=C1\CC(CO)(COC(=O)CC(C(C)C)C(C)C)OC1=O (configuration not stated)
- TGI [1]: 36.2 µM
- TGI [2]: 20.9 µM
- TGI [3]: 27.2 µM
- TGI [4]: 26.4 µM
- TGI [5]: 38.9 µM
- TGI [6]: 30.3 µM
- TGI [7]: 20 µM
- TGI [8]: 33.7 µM
- TGI [9]: 36.8 µM
- TGI [10]: 28.3 µM
- TGI [11]: 30.3 µM
- TGI [12]: 46.5 µM
- TGI [13]: 28.7 µM
- TGI [14]: 27.7 µM
- TGI [15]: 40.2 µM
- TGI [16]: 32.1 µM
- TGI [17]: 31.6 µM
- TGI [18]: > 100 µM
- TGI [19]: 35.5 µM
- TGI [20]: 39.3 µM
- TGI [21]: 31.8 µM
- TGI [22]: 21.1 µM
- TGI [23]: 36.4 µM
- TGI [24]: 18.3 µM
- TGI [25]: 31.9 µM
- TGI [26]: 40.1 µM
- TGI [27]: 45.6 µM
- TGI [28]: 39 µM
- TGI [29]: 47 µM
- TGI [30]: > 100 µM
- TGI [31]: > 100 µM
- TGI [32]: 32.3 µM
- TGI [33]: 24.3 µM
- TGI [34]: 31.8 µM
- TGI [35]: 22.9 µM
- TGI [36]: 26.8 µM
- TGI [37]: 30.3 µM
- TGI [38]: 31 µM
- TGI [39]: 15.3 µM
- TGI [40]: 27.5 µM
- TGI [41]: 32.6 µM
- TGI [42]: 33.6 µM
- TGI [43]: 33.9 µM
- TGI [44]: 54.1 µM
- TGI [45]: 44.2 µM
- TGI [46]: 28.6 µM
- TGI [47]: 49 µM
- TGI [48]: 28.8 µM
- TGI [49]: 32.4 µM
- TGI [50]: > 100 µM
- TGI [51]: 22 µM
- TGI [52]: 55.1 µM
- TGI [53]: 38.7 µM
- TGI [54]: 44.9 µM
- TGI [55]: 44.4 µM

SMILES: O=C1Nc2ccccc2S/C1=C\c1ccc(C(F)(F)F)cc1
- TGI [1]: > 100 µM
- TGI [2]: > 100 µM
- TGI [3]: > 100 µM
- TGI [4]: > 100 µM
- TGI [5]: > 100 µM
- TGI [6]: > 100 µM
- TGI [56]: > 100 µM
- TGI [7]: > 100 µM
- TGI [8]: > 100 µM
- TGI [9]: > 100 µM
- TGI [10]: > 100 µM
- TGI [11]: > 100 µM
- TGI [12]: > 100 µM
- TGI [13]: > 100 µM
- TGI [14]: > 100 µM
- TGI [15]: > 100 µM
- TGI [57]: > 100 µM
- TGI [16]: > 100 µM
- TGI [17]: > 100 µM
- TGI [18]: > 100 µM
- TGI [19]: > 100 µM
- TGI [20]: > 100 µM
- TGI [21]: > 100 µM
- TGI [22]: > 100 µM
- TGI [24]: > 100 µM
- TGI [25]: > 100 µM
- TGI [26]: > 100 µM
- TGI [27]: > 100 µM
- TGI [28]: > 100 µM
- TGI [29]: > 100 µM
- TGI [30]: > 100 µM
- TGI [32]: > 100 µM
- TGI [33]: 93.3 µM
- TGI [34]: > 100 µM
- TGI [58]: > 100 µM
- TGI [35]: > 100 µM
- TGI [36]: > 100 µM
- TGI [37]: > 100 µM
- TGI [38]: > 100 µM
- TGI [39]: > 100 µM
- TGI [40]: > 100 µM
- TGI [42]: > 100 µM
- TGI [43]: > 100 µM
- TGI [44]: > 100 µM
- TGI [45]: > 100 µM
- TGI [46]: > 100 µM
- TGI [47]: > 100 µM
- TGI [48]: > 100 µM
- TGI [59]: > 100 µM
- TGI [49]: > 100 µM
- TGI [50]: > 100 µM
- TGI [51]: > 100 µM
- TGI [52]: > 100 µM
- TGI [53]: > 100 µM
- TGI [54]: > 100 µM
- TGI [55]: > 100 µM

SMILES: NCC(=O)NC1(C(=O)O)CCCC1 (H-Gly-[Ac5c]-OH)
- TGI [1]: > 100 µM
- TGI [2]: > 100 µM
- TGI [4]: > 100 µM
- TGI [5]: > 100 µM
- TGI [6]: > 100 µM
- TGI [56]: > 100 µM
- TGI [7]: > 100 µM
- TGI [8]: > 100 µM
- TGI [9]: > 100 µM
- TGI [10]: > 100 µM
- TGI [11]: > 100 µM
- TGI [12]: > 100 µM
- TGI [13]: > 100 µM
- TGI [14]: > 100 µM
- TGI [15]: > 100 µM
- TGI [57]: > 100 µM
- TGI [16]: > 100 µM
- TGI [17]: > 100 µM
- TGI [18]: > 100 µM
- TGI [19]: > 100 µM
- TGI [20]: > 100 µM
- TGI [21]: > 100 µM
- TGI [22]: > 100 µM
- TGI [23]: > 100 µM
- TGI [24]: > 100 µM
- TGI [25]: > 100 µM
- TGI [26]: > 100 µM
- TGI [27]: > 100 µM
- TGI [28]: > 100 µM
- TGI [29]: > 100 µM
- TGI [30]: > 100 µM
- TGI [32]: > 100 µM
- TGI [33]: > 100 µM
- TGI [34]: > 100 µM
- TGI [35]: > 100 µM
- TGI [36]: > 100 µM
- TGI [37]: > 100 µM
- TGI [38]: > 100 µM
- TGI [39]: > 100 µM
- TGI [40]: > 100 µM
- TGI [41]: > 100 µM
- TGI [42]: > 100 µM
- TGI [43]: > 100 µM
- TGI [44]: > 100 µM
- TGI [45]: > 100 µM
- TGI [46]: > 100 µM
- TGI [47]: > 100 µM
- TGI [48]: > 100 µM
- TGI [59]: > 100 µM
- TGI [49]: > 100 µM
- TGI [50]: > 100 µM
- TGI [51]: > 100 µM
- TGI [52]: > 100 µM
- TGI [53]: > 100 µM
- TGI [54]: > 100 µM
- TGI [55]: > 100 µM
